In this assay the target is T1, estrogen receptor alpha (ERα) ligand binding domain (Homo sapiens, UniProt P03372, C381S/C417S/C530S/Y537S).
T1 construct: gene ESR1
T1 sequence (P03372 300-550 C381S/C417S/C530S/Y537S): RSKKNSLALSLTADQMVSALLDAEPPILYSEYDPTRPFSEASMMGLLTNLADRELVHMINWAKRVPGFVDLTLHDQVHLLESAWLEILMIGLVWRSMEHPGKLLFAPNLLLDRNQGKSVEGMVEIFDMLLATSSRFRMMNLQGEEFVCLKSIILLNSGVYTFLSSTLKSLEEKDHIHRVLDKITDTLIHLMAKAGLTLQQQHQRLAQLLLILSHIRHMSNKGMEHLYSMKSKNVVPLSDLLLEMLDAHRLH
Briefly: X-ray co-crystal structure, […] Å.

Take `O=C(c1ccccc1)N1C(c2ccc(OCC3CCN(CCCF)C3)cc2)c2ccc(O)cc2CC12CC2` (stereo not shown) [T6I-29]: the “X-ray co-crystal structure, 2.20 Å” value is recorded as “we solved an x-ray co-crystal structure of T6I-29 in complex with Y537S ERα LBD”.

The values are drawn from publication PMC11230492, “Targeting Unique Ligand Binding Domain Structural Features Downregulates DKK1 in Y537S ESR1 Mutant Breast Cancer Cells” (Research Square, 2024).
